Read-outs that look alike come from different tables or passages of the source.
Key:
[1] = molecular target: His6-TEV-PDGFRβ (557-1016) (Homo sapiens (Human), UniProt P09619); assay: PDGFRβ HTRF Assay; type: biochemical; conditions: read-out: PDGFR HTRF IC50
Outline: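 Human PDGFRβ (557-1016) pre-incubated with compound for 30 min at RT in pH 7.5 HEPES/MgCl2/EGTA/Brij-35/DTT buffer. Reaction started with ATP and TK-biotin peptide, run 3 h at RT, then quenched with EDTA-containing Eu-cryptate antibody/streptavidin-XL665. HTRF 665/620 nm ratio read after 60 min; percent inhibition relative to DMSO and 10 μM imatinib controls.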

PDGFRβ = PDGFRβ (Rattus norvegicus (Rat), UniProt Q05030); assay: PDGFRβ Cellular Assay (PDGFRb P-Y751 HTRF in A10 cells stimulated with PDGF-BB); type: cell-based
Sequence of PDGFRβ (Q05030 32-1097): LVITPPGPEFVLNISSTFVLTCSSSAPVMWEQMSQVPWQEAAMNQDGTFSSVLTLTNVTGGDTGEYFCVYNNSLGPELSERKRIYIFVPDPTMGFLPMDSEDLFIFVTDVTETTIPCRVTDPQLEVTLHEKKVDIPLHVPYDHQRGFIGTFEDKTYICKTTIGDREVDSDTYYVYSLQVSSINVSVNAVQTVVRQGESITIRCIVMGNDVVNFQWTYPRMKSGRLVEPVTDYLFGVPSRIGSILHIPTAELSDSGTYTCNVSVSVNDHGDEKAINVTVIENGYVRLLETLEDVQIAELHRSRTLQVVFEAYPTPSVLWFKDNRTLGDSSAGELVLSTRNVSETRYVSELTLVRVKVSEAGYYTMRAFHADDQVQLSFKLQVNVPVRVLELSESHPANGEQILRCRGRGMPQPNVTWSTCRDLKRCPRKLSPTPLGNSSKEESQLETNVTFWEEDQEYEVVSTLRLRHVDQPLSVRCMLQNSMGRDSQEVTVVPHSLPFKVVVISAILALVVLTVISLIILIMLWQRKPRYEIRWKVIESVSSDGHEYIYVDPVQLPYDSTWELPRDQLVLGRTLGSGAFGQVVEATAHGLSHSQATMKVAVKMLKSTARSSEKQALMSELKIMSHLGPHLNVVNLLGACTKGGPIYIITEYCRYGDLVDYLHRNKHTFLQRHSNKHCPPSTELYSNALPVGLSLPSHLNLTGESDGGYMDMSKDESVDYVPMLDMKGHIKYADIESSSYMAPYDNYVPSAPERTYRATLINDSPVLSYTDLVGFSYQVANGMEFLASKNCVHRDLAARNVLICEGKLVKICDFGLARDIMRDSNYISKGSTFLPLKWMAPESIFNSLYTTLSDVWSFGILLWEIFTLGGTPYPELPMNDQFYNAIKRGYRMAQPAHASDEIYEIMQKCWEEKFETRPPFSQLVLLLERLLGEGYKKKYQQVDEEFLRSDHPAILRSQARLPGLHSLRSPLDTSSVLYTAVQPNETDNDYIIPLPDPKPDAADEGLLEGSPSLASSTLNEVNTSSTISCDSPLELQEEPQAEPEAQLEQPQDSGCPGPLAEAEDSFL
Outline: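 Rat A10 cells, plated overnight, were treated with compound for 3 hours, then stimulated with PDGF-BB (working stock 100 ng/mL in 10% FBS medium). After lysis, PDGFRβ P-Y751 was detected by HTRF.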

Sequence of His6-TEV-PDGFRβ (557-1016) (P09619 557-1016): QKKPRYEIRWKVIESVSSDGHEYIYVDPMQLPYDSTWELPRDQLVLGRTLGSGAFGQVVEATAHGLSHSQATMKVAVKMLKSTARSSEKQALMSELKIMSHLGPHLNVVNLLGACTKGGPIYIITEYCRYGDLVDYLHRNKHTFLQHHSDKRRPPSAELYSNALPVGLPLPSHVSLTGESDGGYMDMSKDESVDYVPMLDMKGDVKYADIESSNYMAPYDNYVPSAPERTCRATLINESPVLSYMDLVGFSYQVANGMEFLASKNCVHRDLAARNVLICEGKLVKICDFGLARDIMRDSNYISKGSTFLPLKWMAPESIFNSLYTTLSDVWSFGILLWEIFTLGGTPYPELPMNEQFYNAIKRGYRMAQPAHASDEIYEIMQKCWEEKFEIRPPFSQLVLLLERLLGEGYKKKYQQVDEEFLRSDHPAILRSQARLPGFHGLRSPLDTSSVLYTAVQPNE

| SMILES | IC50 [1] | IC50 (PDGFRβ; read-out: PDGFR Cellular IC50) | IC50 (PDGFRβ; PDGFR Cellular IC50) |
| --- | --- | --- | --- |
| Cc1ncc(NC(=O)CN2C[C@@H](CO)OC(C)(C)C2)cc1NC(=O)c1cnn2cc(-c3cnn(C)c3)sc12 [Example 377, (S)—N-(5-(2-(6-(hydroxymethyl)-2,2-dimethylmorpholino)acetamido)-2-methylpyridin-3-yl)-2-(1-methyl-1H-pyrazol-4-yl)pyrazolo[5,1-b]thiazole-7-carboxamide] | 0.8 nM | 119 nM |  |
| Cc1ncc(NC(=O)C2CCN(C(C)C)C2)cc1NC(=O)c1cnn2cc(-c3cnn4c3OCCC4)sc12 (centres unmarked) [Example 350, 2-(6,7-dihydro-5H-pyrazolo[5,1-b][1,3]oxazin-3-yl)-N-(5-(1-isopropylpyrrolidine-3-carboxamido)-2-methylpyridin-3-yl)pyrazolo[5,1-b]thiazole-7-carboxamide] | 0.3 nM | 73.3 nM |  |
| COc1cccc(-c2cn3ncc(C(=O)Nc4cc(NC(=O)CN5CC(C)(C)C5)cnc4C)c3s2)n1 [Example 394, N-(5-(2-(3,3-dimethylazetidin-1-yl)acetamido)-2-methylpyridin-3-yl)-2-(6-methoxypyridin-2-yl)pyrazolo[5,1-b]thiazole-7-carboxamide] | 0.2 nM | 1.8 nM |  |
| COc1ncccc1-c1cn2ncc(C(=O)Nc3cc(NC(=O)CN4C[C@H](C)O[C@@H](C)C4)cnc3C)c2s1 (relative stereo) [Example 368, N-(5-(2-(trans-2,6-dimethylmorpholino)acetamido)-2-methylpyridin-3-yl)-2-(2-methoxypyridin-3-yl)pyrazolo[5,1-b]thiazole-7-carboxamide] | 0.3 nM | 3.7 nM |  |
| Cc1ncc(S(=O)(=O)NCCN2CCCC2(C)C)cc1NC(=O)c1cnn2cc(-c3cnn(C)c3)sc12 [Example 359, N-(5-(N-(2-(2,2-dimethylpyrrolidin-1-yl)ethyl)sulfamoyl)-2-methylpyridin-3-yl)-2-(1-methyl-1H-pyrazol-4-yl)pyrazolo[5,1-b]thiazole-7-carboxamide] | 16.4 nM | 365 nM |  |
| Cc1ncc(NC(=O)[C@@H]2CCCN2C)cc1NC(=O)c1cnn2cc(-c3cnn4c3OCCC4)sc12 [Example 349, (S)-2-(6,7-dihydro-5H-pyrazolo[5,1-b][1,3]oxazin-3-yl)-N-(2-methyl-5-(1-methylpyrrolidine-2-carboxamido)pyridin-3-yl)pyrazolo[5,1-b]thiazole-7-carboxamide] | 0.6 nM | 9.1 nM |  |
| CCn1nccc1-c1cn2ncc(C(=O)Nc3cc(NC(=O)CN4CC(C)(C)C4)cnc3C)c2s1 [Example 388, N-(5-(2-(3,3-dimethylazetidin-1-yl)acetamido)-2-methylpyridin-3-yl)-2-(1-ethyl-1H-pyrazol-5-yl)pyrazolo[5,1-b]thiazole-7-carboxamide] | 0.5 nM | 5.1 nM |  |
| Cc1ncc(NC(=O)C[C@H]2CCCN2C(C)C)cc1NC(=O)c1cnn2cc(-c3cnn4c3OCCC4)sc12 [Example 351, (R)-2-(6,7-dihydro-5H-pyrazolo[5,1-b][1,3]oxazin-3-yl)-N-(5-(2-(1-isopropylpyrrolidin-2-yl)acetamido)-2-methylpyridin-3-yl)pyrazolo[5,1-b]thiazole-7-carboxamide] | 0.3 nM |  | 17.7 nM |
| Cc1ncc(NC(=O)CN2C[C@H](C)O[C@@H](C)C2)cc1NC(=O)c1cnn2cc(-c3cc[nH]n3)sc12 (relative stereo) [Example 374, N-(5-(2-(trans-2,6-dimethylmorpholino)acetamido)-2-methylpyridin-3-yl)-2-(1H-pyrazol-3-yl)pyrazolo[5,1-b]thiazole-7-carboxamide] | 0.4 nM | 41.3 nM |  |
| COc1ncccc1-c1cn2ncc(C(=O)Nc3cc(NC(=O)CN4CCC4)cnc3C)c2s1 [Example 397, N-(5-(2-(azetidin-1-yl)acetamido)-2-methylpyridin-3-yl)-2-(2-methoxypyridin-3-yl)pyrazolo[5,1-b]thiazole-7-carboxamide] | 0.8 nM |  | 7.6 nM |
| COCCn1cc(-c2cn3ncc(C(=O)Nc4cc(NC(=O)CN5C6CCC5CC6)cnc4C)c3s2)cn1 [Example 340, N-(5-(2-(7-azabicyclo[2.2.1]heptan-7-yl)acetamido)-2-methylpyridin-3-yl)-2-(1-(2-methoxyethyl)-1H-pyrazol-4-yl)pyrazolo[5,1-b]thiazole-7-carboxamide] | 0.5 nM | 6.5 nM |  |
| Cc1ncc(NC(=O)CN2C[C@H](C)O[C@@H](C)C2)cc1NC(=O)c1cnn2cc(-c3c[nH]nc3C)sc12 (relative stereo) [Example 371, N-(5-(2-(trans-2,6-dimethylmorpholino)acetamido)-2-methylpyridin-3-yl)-2-(3-methyl-1H-pyrazol-4-yl)pyrazolo[5,1-b]thiazole-7-carboxamide] | 0.4 nM | 29.3 nM |  |
| COc1ncc(-c2cn3ncc(C(=O)Nc4cc(NC(=O)CN5CC(C)(C)C5)cnc4C)c3s2)c(OC)n1 [Example 392, 2-(2,4-dimethoxypyrimidin-5-yl)-N-(5-(2-(3,3-dimethylazetidin-1-yl)acetamido)-2-methylpyridin-3-yl)pyrazolo[5,1-b]thiazole-7-carboxamide] | 0.5 nM |  | 4.8 nM |
| COc1ncccc1-c1cn2ncc(C(=O)Nc3cc(NC(=O)CN4CC(F)C4)cnc3C)c2s1 [Example 402, N-(5-(2-(3-fluoroazetidin-1-yl)acetamido)-2-methylpyridin-3-yl)-2-(2-methoxypyridin-3-yl)pyrazolo[5,1-b]thiazole-7-carboxamide] | 0.3 nM | 5.4 nM |  |
| COc1cc(-c2cn3ncc(C(=O)Nc4cc(NC(=O)CN5CC(C)(C)C5)cnc4C)c3s2)c(OC)nn1 [Example 393, 2-(3,6-dimethoxypyridazin-4-yl)-N-(5-(2-(3,3-dimethylazetidin-1-1)acetamido)-2-methylpyridin-3-yl)pyrazolo[5,1-b]thiazole-7-carboxamide] | 0.7 nM | 3.5 nM |  |
| Cc1ncc(NC(=O)CN2CCC3(CC2)CC3)cc1NC(=O)c1cnn2cc(-c3cnn(CCO)c3)sc12 [Example 31, N-(5-(2-(6-azaspiro[2.5]octan-6-yl)acetamido)-2-methylpyridin-3-yl)-2-(1-(2-hydroxyethyl)-1H-pyrazol-4-yl)pyrazolo[5,1-b]thiazole-7-carboxamide] | 0.6 nM | 11.1 nM |  |
| Cc1ncc(NC(=O)C2CCN(C(C)C)C2)cc1NC(=O)c1cnn2cc(-c3cnn(C)c3C)sc12 (centres unmarked) [Example 356, 2-(1,5-dimethyl-1H-pyrazol-4-yl)-N-(5-(1-isopropylpyrrolidine-3-carboxamido)-2-methylpyridin-3-yl)pyrazolo[5,1-b]thiazole-7-carboxamide] | 0.5 nM |  | 74.6 nM |
| COc1ncccc1-c1cn2ncc(C(=O)Nc3cc(NC(=O)CN4CC(C)C4)cnc3C)c2s1 [Example 405, 2-(2-methoxypyridin-3-yl)-N-(2-methyl-5-(2-(3-methylazetidin-1-yl)acetamido)pyridin-3-yl)pyrazolo[5,1-b]thiazole-7-carboxamide] | 0.2 nM | 3.8 nM |  |
| COc1ncccc1-c1cn2ncc(C(=O)Nc3cc(NC(=O)CN4C[C@H](C)O[C@@H](C)C4)cnc3C)c2s1 (relative stereo) [Example 384, N-(5-(2-(trans-2,6-dimethylmorpholino)acetamido)-2-methylpyridin-3-yl)-2-(2-methoxypyridin-3-yl)pyrazolo[5,1-b]thiazole-7-carboxamide] | 0.4 nM | 4.3 nM |  |
| COCCn1cc(-c2cn3ncc(C(=O)Nc4cc(NC(=O)C5CN(C(C)C)C5)cnc4C)c3s2)cn1 [Example 342, N-(5-(1-isopropylazetidine-3-carboxamido)-2-methylpyridin-3-yl)-2-(1-(2-methoxyethyl)-1H-pyrazol-4-yl)pyrazolo[5,1-b]thiazole-7-carboxamide] | 0.6 nM | 339 nM |  |
| Cc1ncc(NC(=O)CN2CCC[C@H]2C)cc1NC(=O)c1cnn2cc(-c3cnn(C)c3)sc12 [Example 26, (R)-2-(1-methyl-1H-pyrazol-4-yl)-N-(2-methyl-5-(2-(2-methyl-pyrrolidin-1-yl)acetamido)pyridin-3-yl)pyrazolo[5,1-b]thiazole-7-carboxamide] | 0.8 nM | 5.9 nM |  |
| COC/C=C/c1cn2ncc(C(=O)Nc3cc(C(=O)NCCN4CCCC4(C)C)cnc3C)c2s1 [Example 361, (E)-N-(5-((2-(2,2-dimethylpyrrolidin-1-yl)ethyl)carbamoyl)-2-methylpyridin-3-yl)-2-(3-methoxyprop-1-en-1-yl)pyrazolo[5,1-b]thiazole-7-carboxamide] | 1.3 nM |  | 14.9 nM |
| Cc1ncc(NS(=O)(=O)CCN2CC3CCC2CC3)cc1NC(=O)c1cnn2cc(-c3cnn(C)c3)sc12 [Example 358, N-(5-((2-(2-azabicyclo[2.2.2]octan-2-yl)ethyl)sulfonamido)-2-methylpyridin-3-yl)-2-(1-methyl-1H-pyrazol-4-yl)pyrazolo[5,1-b]thiazole-7-carboxamide] | 86.6 nM | 941 nM |  |
| COc1ncccc1-c1cn2ncc(C(=O)Nc3cc(NC(=O)CN4C[C@@H](CO)OC(C)(C)C4)cnc3C)c2s1 [Example 380, (S)—N-(5-(2-(6-(hydroxymethyl)-2,2-dimethylmorpholino)acetamido)-2-methylpyridin-3-yl)-2-(2-methoxypyridin-3-yl)pyrazolo[5,1-b]thiazole-7-carboxamide] | 0.4 nM | 9.8 nM |  |
| Cc1ncc(NC(=O)CN2CCC[C@@H]2C)cc1NC(=O)c1cnn2cc(-c3cnn(C)c3)sc12 [Example 27, (S)-2-(1-methyl-1H-pyrazol-4-yl)-N-(2-methyl-5-(2-(2-methyl-pyrrolidin-1-yl)acetamido)pyridin-3-yl)pyrazolo[5,1-b]thiazole-7-carboxamide] | 0.9 nM | 6.3 nM |  |

Reference: patent US20240109917A1 (ACTELION PHARMACEUTICALS LTD, priority 2020, published 2024)
